Source: patent US20260184662A1, “COMPOSITE OF ACID AND SALT, AND PREPARATION METHOD THEREFOR” (NANJING NUTRABUILDING BIO-TECH CO., LTD., priority 2022, published 2026)

Experiment: Stability of complexes at 30-80° C.
Assay type: physicochemical
Conditions: not given
Source text: For R-3-hydroxybutyric acid, potassium R-3-hydroxybutyrate, mixture of R-3-hydroxybutyric acid and potassium R-3-hydroxybutyrate, and R-3-hydroxybutyric acid·potassium R-3-hydroxybutyrate complex of Example 1, […]
For 3-hydroxybutyric acid, potassium 3-hydroxybutyrate, mixture of 3-hydroxybutyric acid and potassium 3-hydroxybutyrate, and 3-hydroxybutyric acid·potassium 3-hydroxybutyrate complex of Example 7, […]
For S-3-hydroxybutyric acid, potassium S-3-hydroxybutyrate, mixture of S-3-hydroxybutyric acid and potassium S-3-hydroxybutyrate, and S-3-hydroxybutyric acid·potassium S-3-hydroxybutyrate complex of Example 13, […]
For R-3-hydroxybutyric acid, calcium R-3-hydroxybutyrate, mixture of R-3-hydroxybutyric acid and calcium R-3-hydroxybutyrate, and R-3-hydroxybutyric acid·calcium R-3-hydroxybutyrate complex of Example 19, […]
For 3-hydroxybutyric acid, calcium 3-hydroxybutyrate, mixture of 3-hydroxybutyric acid and calcium 3-hydroxybutyrate, and 3-hydroxybutyric acid·calcium 3-hydroxybutyrate complex of Example 25, […]
For S-3-hydroxybutyric acid, calcium S-3-hydroxybutyrate, mixture of S-3-hydroxybutyric acid and calcium S-3-hydroxybutyrate, and S-3-hydroxybutyric acid·calcium S-3-hydroxybutyrate complex of Example 31, […]
For R-3-hydroxybutyric acid, magnesium R-3-hydroxybutyrate, mixture of R-3-hydroxybutyric acid and magnesium R-3-hydroxybutyrate, and R-3-hydroxybutyric acid·magnesium R-3-hydroxybutyrate complex of Example 37, […]
For 3-hydroxybutyric acid, magnesium 3-hydroxybutyrate, mixture of 3-hydroxybutyric acid and magnesium 3-hydroxybutyrate, and 3-hydroxybutyric acid·magnesium 3-hydroxybutyrate complex of Example 43, […]
For S-3-hydroxybutyric acid, magnesium S-3-hydroxybutyrate, mixture of S-3-hydroxybutyric acid and magnesium S-3-hydroxybutyrate, and S-3-hydroxybutyric acid·magnesium S-3-hydroxybutyrate complex of Example 49, […]
For R-3-hydroxypentanoic acid, sodium R-3-hydroxypentanoate, mixture of R-3-hydroxypentanoic acid and sodium R-3-hydroxypentanoate, and R-3-hydroxypentanoic acid·sodium R-3-hydroxypentanoate complex of Example 55, […]
For 3-hydroxypentanoic acid, sodium 3-hydroxypentanoate, mixture of 3-hydroxypentanoic acid and sodium 3-hydroxypentanoate, and 3-hydroxypentanoic acid·sodium 3-hydroxypentanoate complex of Example 61, […]
For S-3-hydroxypentanoic acid, sodium S-3-hydroxypentanoate, mixture of S-3-hydroxypentanoic acid and sodium S-3-hydroxypentanoate, and S-3-hydroxypentanoic acid·sodium S-3-hydroxypentanoate complex of Example 67, […]

Row | SMILES | Stability
1 | CC[C@H](O)CC(=O)O.CC[C@H](O)CC(=O)[O-].[Na+] [S-3-hydroxypentanoic acid·sodium S-3-hydroxypentanoate] | unchanged
2 | CCC(O)CC(=O)[O-].[Na+] (stereo not drawn) [Sodium 3-hydroxypentanoate, sodium 3-hydroxypentanoate] | unchanged
3 | CC[C@@H](O)CC(=O)[O-].[Na+] [Sodium R-3-hydroxypentanoate, sodium R-3-hydroxypentanoate] | unchanged
4 | CC[C@H](O)CC(=O)[O-].[Na+] [Sodium S-3-hydroxypentanoate, sodium S-3-hydroxypentanoate] | unchanged

Experiment: Determination of moisture contents with KF moisture meter at different time points
Assay type: physicochemical
Conditions: temperature 23° C., humidity 92.5%, 30 min
Source text: For R-3-hydroxybutyric acid, potassium R-3-hydroxybutyrate, mixture of R-3-hydroxybutyric acid and potassium R-3-hydroxybutyrate, and R-3-hydroxybutyric acid·potassium R-3-hydroxybutyrate complex of Example 1, under a certain condition, KF moisture meter was used to determine the moisture contents at different time points.
For 3-hydroxybutyric acid, potassium 3-hydroxybutyrate, mixture of 3-hydroxybutyric acid and potassium 3-hydroxybutyrate, and 3-hydroxybutyric acid·potassium 3-hydroxybutyrate complex of Example 7, under a certain condition, KF moisture meter was used to determine the moisture contents at different time points.
For S-3-hydroxybutyric acid, potassium S-3-hydroxybutyrate, mixture of S-3-hydroxybutyric acid and potassium S-3-hydroxybutyrate, and S-3-hydroxybutyric acid·potassium S-3-hydroxybutyrate complex of Example 13, under a certain condition, KF moisture meter was used to determine the moisture contents at different time points.
For R-3-hydroxybutyric acid, calcium R-3-hydroxybutyrate, mixture of R-3-hydroxybutyric acid and calcium R-3-hydroxybutyrate, and R-3-hydroxybutyric acid·calcium R-3-hydroxybutyrate complex of Example 19, under a certain condition, KF moisture meter was used to determine the moisture contents at different time points.
For 3-hydroxybutyric acid, calcium 3-hydroxybutyrate, mixture of 3-hydroxybutyric acid and calcium 3-hydroxybutyrate, and 3-hydroxybutyric acid·calcium 3-hydroxybutyrate complex of Example 25, under a certain condition, KF moisture meter was used to determine the moisture contents at different time points.
For S-3-hydroxybutyric acid, calcium S-3-hydroxybutyrate, mixture of S-3-hydroxybutyric acid and calcium S-3-hydroxybutyrate, and S-3-hydroxybutyric acid·calcium S-3-hydroxybutyrate complex of Example 31, under a certain condition, KF moisture meter was used to determine the moisture contents at different time points.
For R-3-hydroxybutyric acid, magnesium R-3-hydroxybutyrate, mixture of R-3-hydroxybutyric acid and magnesium R-3-hydroxybutyrate, and R-3-hydroxybutyric acid·magnesium R-3-hydroxybutyrate complex of Example 37, under a certain condition, KF moisture meter was used to determine the moisture contents at different time points.
For 3-hydroxybutyric acid, magnesium 3-hydroxybutyrate, mixture of 3-hydroxybutyric acid and magnesium 3-hydroxybutyrate, and 3-hydroxybutyric acid·magnesium 3-hydroxy butyrate complex of Example 43, under a certain condition, KF moisture meter was used to determine the moisture contents at different time points.
For S-3-hydroxybutyric acid, magnesium S-3-hydroxybutyrate, mixture of S-3-hydroxybutyric acid and magnesium S-3-hydroxybutyrate, and S-3-hydroxybutyric acid·magnesium S-3-hydroxybutyrate complex of Example 49, under a certain condition, KF moisture meter was used to determine the moisture contents at different time points.
For R-3-hydroxypentanoic acid, sodium R-3-hydroxypentanoate, mixture of R-3-hydroxypentanoic acid and sodium R-3-hydroxypentanoate, and R-3-hydroxypentanoic acid·sodium R-3-hydroxypentanoate complex of Example 55, under a certain condition, KF moisture meter was used to determine the moisture contents at different time points.
For 3-hydroxypentanoic acid, sodium 3-hydroxypentanoate, mixture of 3-hydroxypentanoic acid and sodium 3-hydroxypentanoate, and 3-hydroxypentanoic acid·sodium 3-hydroxypentanoate complex of Example 61, under a certain condition, KF moisture meter was used to determine the moisture contents at different time points.
For S-3-hydroxypentanoic acid, sodium S-3-hydroxypentanoate, mixture of S-3-hydroxypentanoic acid and sodium S-3-hydroxypentanoate, and S-3-hydroxypentanoic acid·sodium S-3-hydroxypentanoate complex of Example 67, under a certain condition, KF moisture meter was used to determine the moisture contents at different time points.

Row | SMILES | moisture content (%)
5 | CC[C@H](O)CC(=O)O.CC[C@H](O)CC(=O)[O-].[Na+] [S-3-hydroxypentanoic acid·sodium S-3-hydroxypentanoate] | 0.59
6 | CCC(O)CC(=O)[O-].[Na+] (stereo not drawn) [Sodium 3-hydroxypentanoate, sodium 3-hydroxypentanoate] | 0.96
7 | CC[C@@H](O)CC(=O)[O-].[Na+] [Sodium R-3-hydroxypentanoate, sodium R-3-hydroxypentanoate] | 0.87
8 | CC[C@H](O)CC(=O)[O-].[Na+] [Sodium S-3-hydroxypentanoate, sodium S-3-hydroxypentanoate] | 0.91

Same assay, conditions: temperature 23° C., humidity 92.5%, 1 h

Row | SMILES | moisture content (%)
9 | CC[C@H](O)CC(=O)O.CC[C@H](O)CC(=O)[O-].[Na+] [S-3-hydroxypentanoic acid·sodium S-3-hydroxypentanoate] | 1.15
10 | CCC(O)CC(=O)[O-].[Na+] (stereo not drawn) [Sodium 3-hydroxypentanoate, sodium 3-hydroxypentanoate] | 1.83
11 | CC[C@@H](O)CC(=O)[O-].[Na+] [Sodium R-3-hydroxypentanoate, sodium R-3-hydroxypentanoate] | 1.68
12 | CC[C@H](O)CC(=O)[O-].[Na+] [Sodium S-3-hydroxypentanoate, sodium S-3-hydroxypentanoate] | 1.73

Same assay, conditions: temperature 23° C., humidity 92.5%, 2 h

Row | SMILES | moisture content (%)
13 | CC[C@H](O)CC(=O)O.CC[C@H](O)CC(=O)[O-].[Na+] [S-3-hydroxypentanoic acid·sodium S-3-hydroxypentanoate] | 1.54
14 | CCC(O)CC(=O)[O-].[Na+] (stereo not drawn) [Sodium 3-hydroxypentanoate, sodium 3-hydroxypentanoate] | 3.02
15 | CC[C@@H](O)CC(=O)[O-].[Na+] [Sodium R-3-hydroxypentanoate, sodium R-3-hydroxypentanoate] | 2.83
16 | CC[C@H](O)CC(=O)[O-].[Na+] [Sodium S-3-hydroxypentanoate, sodium S-3-hydroxypentanoate] | 2.91

Same assay, conditions: temperature 23° C., humidity 92.5%, 4 h

Row | SMILES | moisture content (%)
17 | CC[C@H](O)CC(=O)O.CC[C@H](O)CC(=O)[O-].[Na+] [S-3-hydroxypentanoic acid·sodium S-3-hydroxypentanoate] | 2.73
18 | CCC(O)CC(=O)[O-].[Na+] (stereo not drawn) [Sodium 3-hydroxypentanoate, sodium 3-hydroxypentanoate] | 4.46
19 | CC[C@@H](O)CC(=O)[O-].[Na+] [Sodium R-3-hydroxypentanoate, sodium R-3-hydroxypentanoate] | 4.36
20 | CC[C@H](O)CC(=O)[O-].[Na+] [Sodium S-3-hydroxypentanoate, sodium S-3-hydroxypentanoate] | 4.43

Same assay, conditions: temperature 23° C., humidity 92.5%, 6 h

Row | SMILES | moisture content (%)
21 | CC[C@H](O)CC(=O)O.CC[C@H](O)CC(=O)[O-].[Na+] [S-3-hydroxypentanoic acid·sodium S-3-hydroxypentanoate] | 3.99
22 | CCC(O)CC(=O)[O-].[Na+] (stereo not drawn) [Sodium 3-hydroxypentanoate, sodium 3-hydroxypentanoate] | 6.28
23 | CC[C@@H](O)CC(=O)[O-].[Na+] [Sodium R-3-hydroxypentanoate, sodium R-3-hydroxypentanoate] | 6.13
24 | CC[C@H](O)CC(=O)[O-].[Na+] [Sodium S-3-hydroxypentanoate, sodium S-3-hydroxypentanoate] | 6.22

Same assay, conditions: temperature 23° C., humidity 92.5%, 7 h

Row | SMILES | moisture content (%)
25 | CC[C@H](O)CC(=O)O.CC[C@H](O)CC(=O)[O-].[Na+] [S-3-hydroxypentanoic acid·sodium S-3-hydroxypentanoate] | 4.43
26 | CCC(O)CC(=O)[O-].[Na+] (stereo not drawn) [Sodium 3-hydroxypentanoate, sodium 3-hydroxypentanoate] | 6.96
27 | CC[C@@H](O)CC(=O)[O-].[Na+] [Sodium R-3-hydroxypentanoate, sodium R-3-hydroxypentanoate] | 6.70
28 | CC[C@H](O)CC(=O)[O-].[Na+] [Sodium S-3-hydroxypentanoate, sodium S-3-hydroxypentanoate] | 6.79

Same assay, conditions: temperature 23° C., humidity 92.5%, 11 h

Row | SMILES | moisture content (%)
29 | CC[C@H](O)CC(=O)O.CC[C@H](O)CC(=O)[O-].[Na+] [S-3-hydroxypentanoic acid·sodium S-3-hydroxypentanoate] | 7.03
30 | CCC(O)CC(=O)[O-].[Na+] (stereo not drawn) [Sodium 3-hydroxypentanoate, sodium 3-hydroxypentanoate] | 10.72
31 | CC[C@@H](O)CC(=O)[O-].[Na+] [Sodium R-3-hydroxypentanoate, sodium R-3-hydroxypentanoate] | 10.57
32 | CC[C@H](O)CC(=O)[O-].[Na+] [Sodium S-3-hydroxypentanoate, sodium S-3-hydroxypentanoate] | 10.61

Same assay, conditions: temperature 23° C., humidity 92.5%, 22 h

Row | SMILES | moisture content (%)
33 | CC[C@H](O)CC(=O)O.CC[C@H](O)CC(=O)[O-].[Na+] [S-3-hydroxypentanoic acid·sodium S-3-hydroxypentanoate] | 14.11
34 | CCC(O)CC(=O)[O-].[Na+] (stereo not drawn) [Sodium 3-hydroxypentanoate, sodium 3-hydroxypentanoate] | 20.79
35 | CC[C@@H](O)CC(=O)[O-].[Na+] [Sodium R-3-hydroxypentanoate, sodium R-3-hydroxypentanoate] | 20.57
36 | CC[C@H](O)CC(=O)[O-].[Na+] [Sodium S-3-hydroxypentanoate, sodium S-3-hydroxypentanoate] | 20.44
